Assay results from patent US12134610B2, “Somatostatin subtype-2 receptor (SST2R) targeted therapeutics and uses thereof” (priority 2022, dated 2024).
Like-named read-outs stand apart in the source and are kept apart here. Starred links: 1 amine or outer side, 2 acyl side, 3 side chain; linkers in the order of their positions; H or OH if unused. Non-standard residues stand in square brackets, D forms with d. Residues, ends and D or L forms follow the SMILES beside them. *: point of attachment. X1 = Cc1cc(F)cc(-c2cnc(NCCNC(=O)CCOCCC(=O)*)c(-c3nc4ccc(Cl)cc4[nH]3)c2N2CCC(N)CC2)c1; X3 = Cc1cc(F)cc(-c2cnc(NCCN*)c(-c3nc4ccc(Cl)cc4[nH]3)c2N2CCC(N)CC2)c1; Dolaproine = CO[C@@H]([C@@H]1CCCN1)[C@@H](C)C(=O)O; Dil = CC[C@H](C)[C@H](NC)[C@@H](CC(=O)O)OC; PABC = O=C(OCc1ccc(N[*:1])cc1)[*:2]; Glutaryl = O=C(CCCC(=O)[*:2])[*:1]; X2 = C[C@@H](N*)[C@@H](O)c1ccccc1; Cit = NC(=O)NCCC[C@H](N)C(=O)O; NMeV = CN[C@H](C(=O)O)C(C)C; Sar = CNCC(=O)O

How the values were obtained:
Format in all cases: cell-based
[1] = molecular target: T1, human somatostatin receptor subtype 2 (Homo sapiens, UniProt P30874); test: Functional cAMP assay for SSTR2 agonists (HTRF) in CHO-K1 cells; conditions: CHO-K1 cells stably expressing human SST2, 20 min
T1 construct: expressed in transfected cells
Summary of the method: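 Agonism scored as loss of NKH477 (1.6 μM)-driven cAMP, with IBMX present, after 20 min, 37° C. exposure of stably transfected CHO-K1 cells to compound dilutions (typically 0-10,000 nM). Lysates read by time-resolved FRET; cAMP interpolated from standard curve and EC50 derived.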

[2] = molecular target: T2, SST2 (Homo sapiens, UniProt P30874); test: PathHunter CHO-K1 SST2 internalization assay; conditions: PathHunter CHO-K1 SST2, 90 min
T2 construct: host or cells: PathHunter CHO-K1 SST2 cells
Summary of the method: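 IC50 comes from four-parameter curves on background-corrected duplicates of Beta-Glo luminescence, read after 60 min at room temperature in the dark. Before that, CHO-K1 SST2 internalization cells (48 h post-seeding) received SMDC as eleven threefold dilutions, 10 uM highest final, for 90 min at 37 C.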

[3] = system: NCI-H524 (ATCC) human small cell lung cancer cells
Summary of the method: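 CellTiter-Glo luminescence after a 2 h SMDC pulse (top dose 1 uM, 2-fold dilutions, 11 points), medium wash, then 70 h recovery. Cells were seeded at 5,000/well and dosed 24 h later. % inhibition vs control gave IC50 via four-parameter fit.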

[4] = 2 h treatment, washout, additional 70 h, read-out: H524 EC50

T1 sequence (P30874 whole entry): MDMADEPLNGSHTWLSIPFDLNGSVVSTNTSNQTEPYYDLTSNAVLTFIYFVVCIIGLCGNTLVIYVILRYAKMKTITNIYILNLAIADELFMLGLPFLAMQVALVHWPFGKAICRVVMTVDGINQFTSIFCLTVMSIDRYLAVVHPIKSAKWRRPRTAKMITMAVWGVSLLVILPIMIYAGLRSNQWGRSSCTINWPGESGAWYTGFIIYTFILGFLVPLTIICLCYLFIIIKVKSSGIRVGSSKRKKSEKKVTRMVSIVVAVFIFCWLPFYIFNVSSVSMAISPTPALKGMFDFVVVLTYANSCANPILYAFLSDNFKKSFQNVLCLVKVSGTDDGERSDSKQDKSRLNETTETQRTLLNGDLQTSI
T2 sequence (P30874 whole entry): as above

Row | Structure (SMILES) | EC50 ([1]; read-out: hSST2 cAMP Avg EC50) [nM] | EC50 ([2]; read-out: Internalization EC50) [nM] | EC50 ([3]; 2 h) [nM] | EC50 ([1]; hSST2 cAMP Avg EC50 (nM)) [nM] | EC50 ([2]; Internalization EC50 (nM)) [nM] | EC50 [3, 4] [nM]
1 | CC[C@H](C)[C@@H]([C@@H](CC(=O)N1CCC[C@H]1[C@H](OC)[C@@H](C)C(=O)N[C@H](C)[C@@H](O)c1ccccc1)OC)N(C)C(=O)[C@@H](NC(=O)[C@H](C(C)C)N(C)C(=O)OCc1ccc(NC(=O)[C@H](CCCNC(N)=O)NC(=O)[C@@H](NC(=O)CCCC(=O)N(C)CC(=O)N(C)CC(=O)N(C)CC(=O)NCCNc2ncc(-c3cc(C)cc(F)c3)c(N3CCC(N)CC3)c2-c2nc3ccc(Cl)cc3[nH]2)C(C)C)cc1)C(C)C [Compound 96] ({X3-Sar-Sar-Sar-Glutaryl}-V[Cit][PABC][NMeV]V[Dil][Dolaproine]-X2) | 0.47 | 4.9 | 21 | – | – | –
2 | CC[C@H](C)[C@@H]([C@@H](CC(=O)N1CCC[C@H]1[C@H](OC)[C@@H](C)C(=O)N[C@H](C)[C@@H](O)c1ccccc1)OC)N(C)C(=O)[C@@H](NC(=O)[C@H](C(C)C)N(C)C(=O)OCc1ccc(NC(=O)[C@H](CCCNC(N)=O)NC(=O)[C@@H](NC(=O)CCOCCNCCNc2ncc(-c3cc(C)cc(F)c3)c(N3CCC(N)CC3)c2-c2nc3ccc(Cl)cc3[nH]2)C(C)C)cc1)C(C)C [Compound 84] | 0.51 | 9.7 | 24 | – | – | –
3 | CC[C@H](C)[C@@H]([C@@H](CC(=O)N1CCC[C@H]1[C@H](OC)[C@@H](C)C(=O)N[C@H](C)[C@@H](O)c1ccccc1)OC)N(C)C(=O)[C@@H](NC(=O)[C@H](C(C)C)N(C)C(=O)OCc1ccc(NC(=O)[C@H](CCCNC(N)=O)NC(=O)[C@@H](NC(=O)[C@H](CCC(N)=O)NC(=O)CCOCCC(=O)NCCNc2ncc(-c3cc(C)cc(F)c3)c(N3CCC(N)CC3)c2-c2nc3ccc(Cl)cc3[nH]2)C(C)C)cc1C(=O)NC)C(C)C [Compound 54] | 0.17 | 10 | 17 | – | – | –
4 | CC[C@H](C)[C@@H]([C@@H](CC(=O)N1CCC[C@H]1[C@H](OC)[C@@H](C)C(=O)N[C@H](C)[C@@H](O)c1ccccc1)OC)N(C)C(=O)[C@@H](NC(=O)[C@H](C(C)C)N(C)C(=O)OCc1ccc(NC(=O)[C@H](C)NC(=O)[C@@H](NC(=O)CCOCCC(=O)N[C@@H](CS(=O)(=O)O)C(=O)NCCNc2ncc(-c3cc(C)cc(F)c3)c(N3CCC(N)CC3)c2-c2nc3ccc(Cl)cc3[nH]2)C(C)C)c(O[C@@H]2O[C@H](CO)[C@@H](O)[C@H](O)[C@H]2O)c1)C(C)C [Compound 66] | 0.13 | 15 | 300 | – | – | –
5 | CC[C@@]1(O)C(=O)OCc2c1cc1n(c2=O)Cc2c-1nc1cc(F)c(C)c3c1c2[C@@H](NC(=O)OCc1ccc(NC(=O)[C@H](CCCNC(N)=O)NC(=O)[C@@H](NC(=O)CN2CCN(CC(=O)O)CCN(CC(=O)NCCOCCOCCOCCOCCC(=O)NCCNc4ncc(-c5cc(C)cc(F)c5)c(N5CCC(N)CC5)c4-c4nc5ccc(Cl)cc5[nH]4)CC2)C(C)C)cc1)CC3 [Compound 93] | – | – | – | 0.48 | 4.5 | 130
6 | CC[C@H](C)[C@@H]([C@@H](CC(=O)N1CCC[C@H]1[C@H](OC)[C@@H](C)C(=O)N[C@H](C)[C@@H](O)c1ccccc1)OC)N(C)C(=O)[C@@H](NC(=O)[C@H](C(C)C)N(C)C(=O)OCc1ccc(NC(=O)[C@H](CCCNC(N)=O)NC(=O)[C@@H](NC(=O)[C@H](CCC(=O)O)NC(=O)CCOCCC(=O)NCCNc2ncc(-c3cc(C)cc(F)c3)c(N3CCC(N)CC3)c2-c2nc3ccc(Cl)cc3[nH]2)C(C)C)c(O[C@@H]2O[C@H](C(=O)O)[C@@H](O)[C@H](O)[C@H]2O)c1)C(C)C [Compound 143] | 0.14 | 3 | 100 | – | – | –
7 | CC[C@H](C)[C@@H]([C@@H](CC(=O)N1CCC[C@H]1[C@H](OC)[C@@H](C)C(=O)N[C@H](C)[C@@H](O)c1ccccc1)OC)N(C)C(=O)[C@@H](NC(=O)[C@H](C(C)C)N(C)C(=O)OCc1ccc(NC(=O)[C@H](CCCNC(N)=O)NC(=O)[C@@H](NC(=O)CCOCCOCCOCCOCCC(=O)NCCNc2ncc(-c3cc(C)cc(F)c3)c(N3CCC(N)CC3)c2-c2nc3ccc(Cl)cc3[nH]2)C(C)C)cc1C(=O)NCCNC(=O)CCOCCOCCOCCOCCN)C(C)C [Compound 48] | 0.26 | 6.9 | 12.4 | – | – | –
8 | CC[C@H](C)[C@@H]([C@@H](CC(=O)N1CCC[C@H]1[C@H](OC)[C@@H](C)C(=O)N[C@H](C)[C@@H](O)c1ccccc1)OC)N(C)C(=O)[C@@H](NC(=O)[C@H](C(C)C)N(C)C(=O)OCc1ccc(NC(=O)[C@H](C)NC(=O)[C@@H](NC(=O)[C@H](CCC(N)=O)NC(=O)CCCCCC(=O)NCCNc2ncc(-c3cc(C)cc(F)c3)c(N3CCC(N)CC3)c2-c2nc3ccc(Cl)cc3[nH]2)C(C)C)cc1C(=O)NCCN)C(C)C [Compound 121] | 0.45 | 3 | 0.62 | – | – | –
9 | COc1cc2cc(c1Cl)N(C)C(=O)CC(OC(=O)[C@@H](C)N(C)C(=O)CCSSCCOCCOCCOCCOCCC(=O)NCCNc1ncc(-c3cc(C)cc(F)c3)c(N3CCC(N)CC3)c1-c1nc3ccc(Cl)cc3[nH]1)[C@]1(C)OC1[C@@H](C)C1C[C@@](O)(NC(=O)O1)[C@H](OC)/C=C/C=C(\C)C2 (stereo partly drawn) [Compound 21] | 0.41 | 17.2 | 22.4 | – | – | –
10 | CC[C@H](C)[C@@H]([C@@H](CC(=O)N1CCC[C@H]1[C@H](OC)[C@@H](C)C(=O)N[C@H](C)[C@@H](O)c1ccccc1)OC)N(C)C(=O)[C@@H](NC(=O)[C@H](C(C)C)N(C)C(=O)OCc1ccc(NC(=O)[C@H](CCCNC(N)=O)NC(=O)[C@@H](NC(=O)[C@H](CS(=O)(=O)O)NC(=O)CCOCCC(=O)NCCNc2ncc(-c3cc(C)cc(F)c3)c(N3CCC(N)CC3)c2-c2nc3ccc(Cl)cc3[nH]2)C(C)C)cc1C(=O)NCCN)C(C)C [Compound 99] | 0.19 | 2.8 | 4.6 | – | – | –
11 | COc1cc2cc(c1Cl)N(C)C(=O)CC(OC(=O)[C@@H](C)N(C)C(=O)CCSSCCOCCOCCOCCOCCOCCOCCOCCOCCC(=O)NCCNc1ncc(-c3cc(C)cc(F)c3)c(N3CCC(N)CC3)c1-c1nc3ccc(Cl)cc3[nH]1)[C@]1(C)OC1[C@@H](C)C1C[C@@](O)(NC(=O)O1)[C@H](OC)/C=C/C=C(\C)C2 (stereo partly drawn) [Compound 22] | 0.36 | 26 | 27.1 | – | – | –
12 | CC[C@@]1(O)C(=O)OCc2c1cc1n(c2=O)Cc2c-1nc1cc(F)c(C)c3c1c2[C@@H](NC(=O)OCc1ccc(NC(=O)[C@H](CCCNC(N)=O)NC(=O)[C@@H](NC(=O)CN2CCN(CC(=O)O)CCN(CC(=O)NCCOCCC(=O)NCCNc4ncc(-c5cc(C)cc(F)c5)c(N5CCC(N)CC5)c4-c4nc5ccc(Cl)cc5[nH]4)CC2)C(C)C)cc1)CC3 [Compound 72] | – | – | – | 0.28 | 3.9 | 31
13 | CC[C@H](C)[C@@H]([C@@H](CC(=O)N1CCC[C@H]1[C@H](OC)[C@@H](C)C(=O)N[C@H](C)[C@@H](O)c1ccccc1)OC)N(C)C(=O)[C@@H](NC(=O)[C@H](C(C)C)N(C)C(=O)OCc1ccc(NC(=O)[C@H](CCCNC(N)=O)NC(=O)[C@@H](NC(=O)CCOCCC(=O)NCCNc2ncc(-c3cc(C)cc(F)c3)c(N3CCC(N)CC3)c2-c2nc3ccc(Cl)cc3[nH]2)C(C)C)cc1C(=O)NCC(N)=O)C(C)C [Compound 125] | 0.17 | 3.9 | 3.4 | – | – | –
14 | CC[C@H](C)[C@@H]([C@@H](CC(=O)N1CCC[C@H]1[C@H](OC)[C@@H](C)C(=O)N[C@H](C)[C@@H](O)c1ccccc1)OC)N(C)C(=O)[C@@H](NC(=O)[C@H](C(C)C)N(C)C(=O)OCc1ccc(NC(=O)[C@H](C)NC(=O)[C@@H](NC(=O)CCOCCC(=O)NCCNc2ncc(-c3cc(C)cc(F)c3)c(N3CCC(N)CC3)c2-c2nc3ccc(Cl)cc3[nH]2)C(C)C)cc1C(=O)NCCN)C(C)C [Compound 86] | 0.36 | 15 | 1.1 | – | – | –
15 | CC[C@H](C)[C@@H]([C@@H](CC(=O)N1CCC[C@H]1[C@H](OC)[C@@H](C)C(=O)N[C@H](C)[C@@H](O)c1ccccc1)OC)N(C)C(=O)[C@@H](NC(=O)[C@H](C(C)C)N(C)C(=O)OCc1ccc(NC(=O)CCOCCOCCOCCOCCC(=O)NCCNc2ncc(-c3cc(C)cc(F)c3)c(N3CCC(N)CC3)c2-c2nc3ccc(Cl)cc3[nH]2)c(O[C@@H]2O[C@H](C(=O)O)[C@@H](O)[C@H](O)[C@H]2O)c1)C(C)C [Compound 64] | 0.1 | 12 | 9500 | – | – | –
16 | CC[C@H](C)[C@@H]([C@@H](CC(=O)N1CCC[C@H]1[C@H](OC)[C@@H](C)C(=O)N[C@H](C)[C@@H](O)c1ccccc1)OC)N(C)C(=O)[C@@H](NC(=O)[C@H](C(C)C)N(C)C(=O)OCc1ccc(NC(=O)[C@H](CCCNC(N)=O)NC(=O)[C@@H](NC(=O)CCOCCOCCOCCOCCC(=O)NCCNc2ncc(-c3cc(C)cc(F)c3)c(N3CCC(N)CC3)c2-c2nc3ccc(Cl)cc3[nH]2)C(C)C)cc1C(=O)NCC(N)=O)C(C)C [Compound 124] | 0.16 | 5.6 | 5.3 | – | – | –
17 | CC[C@H](C)[C@@H]([C@@H](CC(=O)N1CCC[C@H]1[C@H](OC)[C@@H](C)C(=O)N[C@H](C)[C@@H](O)c1ccccc1)OC)N(C)C(=O)[C@@H](NC(=O)[C@H](C(C)C)N(C)C(=O)CNC(=O)[C@H](Cc1ccccc1)NC(=O)CNC(=O)CNC(=O)CCOCCC(=O)NCCNc1ncc(-c2cc(C)cc(F)c2)c(N2CCC(N)CC2)c1-c1nc2ccc(Cl)cc2[nH]1)C(C)C [Compound 34] (X1-GGFG[NMeV]V[Dil][Dolaproine]-X2) | – | – | – | 0.16 | 21.8 | 3140
